# Laboratory results from US8252807B2, “Methods of inhibiting the interaction between S100 and the receptor for advanced glycation end-products” (Board of Regents, The University of Texas System, priority 2007, dated 2012).
# T1: S100P binding with RAGE (Homo sapiens, UniProt P25815)
# T1 construct: full-length human S100P cDNA (NM_005980) was cloned into the pTrcHis2 vector; His tag
# T1 sequence (P25815 1-95): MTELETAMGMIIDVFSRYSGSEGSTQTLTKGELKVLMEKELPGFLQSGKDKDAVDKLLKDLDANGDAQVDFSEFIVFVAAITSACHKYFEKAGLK
# B1: S100P: purified His-tagged full-length human S100P protein, added exogenously as RAGE ligand (protein, UniProt P25815 1-95, looked up)
# chain: T1 sequence (P25815 1-95)
# modifications: full-length His tag
# notes: purified His-tagged full-length human S100P protein, added exogenously as RAGE ligand
# Assays:
# S100P binding with RAGE = molecular target: T1, S100P binding with RAGE; assay: S100P binding with RAGE ELISA (sRAGE coated plate)
# Method: After removing un-bound S100P by washing with detergent, the bound S100P and RAGE complex was quantified by adding HRP labeled antibody against S100P. *, P=0.04 C5 μM versus cromolyn 5 μM. Two-tailed two-sample (unpaired) Student's t-tests were used to determine P values.
# [1] = system: NFκB activity in MPanc-96 cells; assay: S100P stimulated NFκB luciferase reporter, MPanc-96; format: cell-based, human
# Method: MPanc-96 pancreatic cancer cell lines stably expressing an NFκB luciferase reporter were examined for the effects of S100P, cromolyn and C5. Cells were plated at 5.0×10^3 cells/well, treated for 5 hours with 100 nM of S100P, with or without cromolyn and C5 (1 μM), and activity of a luciferase gene driven by the NFkB promoter was analyzed. P=0.05 C5 versus cromolyn. Two-tailed two-sample (unpaired) Student's t-tests were used to determine P values.
# BxPC-3 cells = assay: BxPC-3 cell viability, 72 hours; format: cell-based
# Method: BxPC-3 cells were plated at 1.0×10^3 cells/well and treated with 0 μM, 1 μM, 10 μM, and 100 μM of cromolyn or C5 alone or in combination with gemcitabine 1 μM and cell viability was analyzed after 72 hours. Two-tailed two-sample (unpaired) Student's t-tests were used to determine P values. […] BxPC-3 cells were plated at 1.0×10^3 cells/well and treated with either 100 μM of cromolyn or 1 μM C5 alone or in combination with gemcitabine (1 μM) and cell viability was analyzed after 72 hours.
# MPanc-96 cells = assay: MPanc-96 cell apoptosis by flow cytometry, 72 hours; format: cell-based, human; settings: 100 and 1000 nM, with or without gemcitabine 10 μM
# Method: FIG. 11 compares the effects of cromolyn and C5 alone and in combination with gemcitabine on MPanc-96 cell apoptosis. MPanc-96 cells were treated with cromolyn or C5 (100 and 1000 nM) with (+) or without (−) gemcitabine (10 μM). Apoptosis was analyzed after 72 hours by flow cytometry.
# S100B with RAGE = S100B with RAGE (Homo sapiens, UniProt P04271); assay: S100B binding with RAGE ELISA (sRAGE coated plate)
# Excerpt: After removing un-bound S100B by washing with detergent, bound S100B and RAGE complex was quantified by adding HRP labeled antibody against S100B.
# Panc-1 cells [2] = assay: Panc-1 cell growth (MTS); format: cell-based
# Method: Panc-1 pancreatic adenocarcinoma cells (1.0×10^3 cells/well) were cultured in the presence or absence of S100P (100 nM) and with or without cromolyn (100 μM), and cell proliferation was analyzed at 24, 48, and 72 hours. Means and 95% confidence intervals of three independent experiments performed in triplicate are shown. *, P=0.001, S100P alone versus S100P+cromolyn.
# Panc-1 cells were plated at 1.0×10^3 cells/well and treated with platelet-derived growth factor (10 ng/mL) with or without cromolyn (100 μM), and cell proliferation was analyzed after 48 hours. Means and 95% confidence intervals of three independent experiments performed in triplicate are shown. *, P=0.004 PDGF and P=0.022 cromolyn+PDGF versus control.
# Growth of Panc-1 and BxPC3 pancreatic adenocarcinoma cells was analyzed using MTS reagent (Promega, Madison, Wis.) according to the manufacturer's directions. Purified S100P (100 nM final concentration) with or without cromolyn (100 μM final concentration) was added to Panc-1 cells. Only cromolyn (0-100 μM) was added to BxPC-3 cells, which express endogenous S100P. For both cell models, 1.0×10^3 cells/well were plated in 96-well culture dishes. Cells were treated with S100P, PDGF, or cromolyn, or a combination, followed immediately by treatment with either S100P or PDGF. MTS (20 μL per well) was added to cells at various times, and the mixture was incubated for 1 hour at 37° C. Samples were then read at 490 nm (as O.D. units) on a uQuant-Microplate Spectrophotometer (Bio-Tek Services Inc., Richmond, Va.). The assay was performed three times in triplicate.
# Panc-1 cells [3] = assay: Matrigel invasion assay, Panc-1; format: cell-based; settings: S100P 100 nM alone, 24 hours
# Method: FIGS. 2A-2D show the effect of cromolyn on pancreatic cancer cell invasion. Panc-1 and BxPC-3 cells were plated in Bio-coat matrigel and control chambers and cultured in serum-free culture media. After 24 hours non-invaded cells in the upper chamber were removed, and cells that invaded onto the lower surface of the membrane were counted from five adjacent fields. […] Data are expressed as the percent invasion through the matrigel matrix and membrane relative to migration through the control membrane. Means and 95% confidence intervals from three independent experiments performed in triplicate are shown. Two-tailed two-sample (unpaired) Student's t-tests were used to determine P values.
# Panc-1 and BxPC-3 cells were seeded in BIOCOAT matrigel invasion chambers and in control chambers without matrigel (Becton-Dickinson, Bedford, Mass.) according to the manufacturer's protocol. Panc-1 cells were seeded with S100P (100 nM) with or without cromolyn (100 μM), and BxPC-3 cells were seeded with or without cromolyn (1-100 μM). Briefly, 2.0×10^5 cells in 300 μL top solution (serum-free media) were added to each chamber and allowed to invade matrigel for 24 hours at 37° C. in a 5% CO2 atmosphere. The non-invading cells on the upper surface of membrane were removed from the chambers with a cotton swab, and the invading cells on the lower surface of the membrane were fixed and stained using a Diff-Quick stain kit (Becton Dickinson, Bedford, Mass.). After two washes with water, the chambers were allowed to air dry. The numbers of invading cells in five adjacent microscope fields per membrane were counted at 20× magnification to obtain the average number of cells per field. Data are expressed as the percent invasion through the matrigel matrix and membrane relative to the migration through the control membrane. The assays were performed three times.
# [4] = system: NFκB promoter activity in Panc-1 cells; assay: Luciferase assay for NFκB activity, Panc-1; format: cell-based; settings: for NFκB promoter activity in Panc-1 cells, mean: 5 hours, 0 nM mean=3358
# Method: FIGS. 3A, 3B, and 3C show the effect of cromolyn on S100P stimulated NFκB promoter activity in pancreatic cancer cells in vitro and in vivo. Panc-1 and BxPC-3 pancreatic cancer cell lines stably expressing an NFκB luciferase reporter were examined for the effects of S100P and cromolyn. […] Means and 95% confidence intervals are shown for three independent experiments performed in triplicate. *, P=0.022, †, P<0.001, and ‡, P<0.001 versus control; #, P=0.005 versus 100 nM S100P alone. […] Means and 95% confidence intervals are shown for three independent experiments performed in triplicate. *, P=0.003, †, P<0.001 versus control. […] After 1 week, tumor growth was assessed and NFκB activity was analyzed using an IVIS system (Xenogen Corp., Alameda, Calif.) after injecting mice with D-luciferin (150 mg per kg body weight) (0 time point). The mice were treated with cromolyn (5 mg per kg body weight by intraperitoneal injection), and NFκB luciferase activity was analyzed again at 24 and 48 hours. *, P=0.005 versus control. Means and 95% confidence intervals are shown for two independent experiments (n=4 mice per group). Two-tailed two-sample (unpaired for in vitro and paired for in vivo studies) Student's t-tests were used to determine P values.
# To study pancreatic cancer cell NFκB activity, a lentivirus NFκB luciferase reporter gene construct was developed. The NFκB luciferase reporter gene was excised and isolated from the pNF-κB-Luc Vector (Clonetec, Mountain View, Calif.) and cloned into the lentiviral vector FG9 (Gift from Dr. Xiao-Feng Qin, Dept. of Immunology, M.D. Anderson Cancer Center replacing the CMV/LTR and UBiC promoters, to form Lenti-NFκB-Luc. Lentiviral NFκB vector were co-transfected with packaging constructs pRSVREV, pMDLg/pRRE, and the VSV-G expression plasmid pHCMVG, and lentivirus was produced in 293T cells by the calcium transfection method, as previously described in Qin, et al., Inhibiting HIV-1 infection in human T cells by lentiviral-mediated delivery of small interfering RNA against CCR5; Proc. Natl. Acad. Sci. U.S.A. 2003 Jan. 7; 100(1):183-8. […] Functional validation of NFκB reporter activity was conducted in vitro using TNF-α (20 ng/mL, Sigma, St. Louis, Mo.) as a positive control.
# BxPC-3 and Panc-1 cells stably expressing a Lenti-NFkB-luc reporter construct were treated with S100P, cromolyn, or the combination for 5 hours. D-luciferin (150 μg/mL) was added to the cells, and luciferase activity was measured using an IVIS bioluminescence system (Xenogen Co. Alameda, Calif.). Each experiment was conducted three times in triplicate.
# S100B with RAGE, sequence (P04271 whole entry, species assumed): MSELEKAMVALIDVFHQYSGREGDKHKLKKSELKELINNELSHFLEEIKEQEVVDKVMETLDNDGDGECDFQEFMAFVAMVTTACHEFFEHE
molecule,measurement,setting,value
"O=C([O-])c1cc(=O)c2c(OCCCCCOc3cccc4oc(C(=O)[O-])cc(=O)c34)cccc2o1.[Na+].[Na+] [C5, disodium 1,5-bis(2-carboxychromon-5-yloxy) pentane]",concentration achieving the same level of S100P inhibition,S100P binding with RAGE,100 nM
same,interaction between S100P with RAGE,S100P binding with RAGE,blocked
same,potency relative to cromolyn in blocking S100P-RAGE interaction,S100P binding with RAGE,more potent than cromolyn
same,NFκB activity in pancreatic cancer cells in vitro,"[1]; S100P 100 nM, compound 1 μM, 5 hours",inhibit NFκB activity
same,reduction of S100P induced NFκB activity relative to cromolyn,[1]; same dose (1 μM),much better than cromolyn
same,BxPC-3 cell viability,"BxPC-3 cells; 1-100 μM, alone or with gemcitabine 1 μM",inhibit BxPC-3 cell viability
same,inhibition of BxPC-3 cell viability relative to cromolyn,"BxPC-3 cells; alone at 10 or 100 μM, with gemcitabine at 1-100 μM",more potent and more efficacious than cromolyn
same,concentration giving the same level of cell reduction in combination with gemcitabine,BxPC-3 cells; with gemcitabine 1 μM,1 µM
same,MPanc-96 cell viability,MPanc-96 cells,inhibit MPanc-96 cell viability
same,interaction of S100B with RAGE,S100B with RAGE,inhibit the interaction of S100B with RAGE
PDGF,"Panc-1 cell growth, difference control versus PDGF","Panc-1 cells [2]; PDGF 10 ng/mL, 48 hours",0.2 MTS units
same,"Panc-1 cell growth, mean","Panc-1 cells [2]; PDGF 10 ng/mL, 48 hours, control mean=0.5",0.7 MTS units
B1,"Panc-1 cell proliferation, mean",Panc-1 cells [2]; S100P 100 nM alone,0.93 MTS units
same,"Panc-1 cells invaded, mean",Panc-1 cells [3],58.0%
same,"NFκB promoter activity in Panc-1 cells, difference versus 0 nM",[4]; S100P 1 nM,3544 photons/sec
same,"NFκB promoter activity in Panc-1 cells, mean",[4]; S100P 1 nM,6902 photons/sec
same,"NFκB promoter activity in Panc-1 cells, difference versus 0 nM",[4]; S100P 10 nM,5400 photons/sec
same,"NFκB promoter activity in Panc-1 cells, mean",[4]; S100P 10 nM,8758 photons/sec
same,"NFκB promoter activity in Panc-1 cells, difference versus 0 nM",[4]; S100P 100 nM,11100 photons/sec
same,"NFκB promoter activity in Panc-1 cells, mean",[4]; S100P 100 nM,14460 photons/sec
